For data set [1], the system named is HuDMEC. In words: VEGF165-induced cell proliferation (BrdU). In kind it is cell-based, human. Particulars: peptide 1 h then 0.5 nM VEGF165 24 h, up to 1 μM, n = 4. How it is done: Human dermal microvascular endothelial cells were serum-starved followed by incubating with p700 peptide for 1 h and then 0.5 nM of VEGF165 for 24 h at 37 °C. Cell proliferation was determined using a BrdU cell proliferation assay kit (Merck Chemicals Ltd, Nottingham, UK).

Data set [2] relates to HuDMEC. In words: VEGF165-induced cell migration (Boyden chamber). Format: cell-based, human. Particulars: 0.5 nM VEGF165, 4.5 h, up to 1 μM, n = 4. How it is done:
The ability of the p700 peptide to inhibit VEGF165-induced EC migration was determined using a multi-well Boyden chamber (Neuro Probe, Gaithersburg, USA). Briefly, serum-starved HuDMEC were treated with p700 for 1 h, washed and plated in the upper chamber in EBM-2 medium containing 1 % FCS on an 8 μm fibronectin pre-coated polycarbonate filter (Neuro Probe, Gaithersburg, USA). The cells were then left to migrate across the filter for 4.5 h at 37 °C with media containing 0.5 nM VEGF165 in the presence and absence of inhibitors in the lower chamber. After the incubation, non-migrating cells on the upper side of the membrane were scraped off and the migrated cells were stained with Hema Gurr® rapid staining kit (Merck Chemicals Ltd, Nottingham, UK). Migrated cells were counted using a light microscope at 160× magnification in three random fields per well of three separate wells.

The test system of data set [3] is HuDMEC. Briefly: Tube formation assay on Matrigel. Format: cell-based, human. How it is done: Serum-starved HuDMEC were seeded onto Matrigel™ matrix pre-coated 96 well plates (BD Biosciences, Cowley, Oxford, UK) at a density of 1 × 10^4 cells/well in 100 μl EBM-2 medium. Peptides were then added into each corresponding well and incubated for 1 h at 37 °C, followed by stimulated with growth factors, 0.5 nM VEGF165, 1 nM PDGF-BB or 1.6 nM bFGF, to induce tubule development. The tubules formed were examined 6 h after stimulation under a low power (40×) light microscope. Images were captured and analysed by measuring the average tubule length using ImageJ software (National Institutes of Health, USA).

Data set [4] has as its system VEGFR-2. Briefly: Immunoblotting of VEGF165-induced VEGFR-2 phosphorylation. As to conditions: 1 μM, HuDMEC, western blot; n = 3. Format: cell-based, human. How it is done:
(§1) Transfected HUVEC or HuDMEC pre-treated with 1 μM test peptides for 1 h, were stimulated with 0.5 nM of VEGF165 for 2, 5 or 10 min. Cells were lysed and phosphorylated proteins detected by western blotting using phospho-specific antibodies to either VEGFR-2, Erk1/2 or PI3K (New England BioLabs, UK). Band intensities were quantified using Bio-Rad Quantity One Analysis software and normalized using U, un-stimulated control, as 0 %; and VEGF165, positive control, as 100 % of protein phosphorylation.

For data set [5], the system named is PI3K. In words: Immunoblotting of VEGF165-induced PI3K phosphorylation. Format: cell-based, human. Particulars: 1 μM, HuDMEC, western blot; n = 3. How it is done: as §1
A general note: A western blot detects proteins with antibodies after separation by electrophoresis.

Data set [6] deals with HuDMEC. Briefly: Toxicity to HuDMEC by propidium iodide staining. In kind it is cell-based, human. Particulars: data not shown.
Data set [7] relates to recombinant human VEGFR-2. Briefly: Solid phase binding assay: competition with biotinylated-VEGF165. Particulars: plate-coated rhVEGFR-2-Fc; biotinylated-VEGF165 2.4 nM, 1 h room temperature; Fig. 1. How it is done:
Ninety six-well plates were coated with the extracellular domain of recombinant human VEGFR-2 fused to the Fc domain of human IgG1 (rhVEGFR-2, R&D Systems, UK) by overnight incubation followed by blocking in 5 % bovine serum albumin/PBS. […] After washing, the biotinylated-VEGF165 was detected with avidin-horse-radish peroxidase and OPD substrate (Sigma-Aldrich, UK) followed by spectrophotometry.

Data set [8] has as its system FGFR1. As to conditions: cited from earlier work. An excerpt:
(§2) TIMP-3 appears to bind VEGFR-2 specifically, with no inhibition of the closely related VEGFR-1, FGFR1 or PDGFR-β receptors.

Data set [9] relates to PDGFR-β. Particulars: cited from earlier work.
From the text: as §2

Data set [10] deals with VEGFR-1. Particulars: cited from earlier work.
From the text: as §2

A value given as a limit tells only on which side of the number the result lay.

As for “fibrinopeptide A (ADSGEGDFLAEGGGVR; Fibrinopeptide A; UniProt P02671 20-35, looked up) [control peptide, 16 amino acid biologically inert control peptide, purchased from Bachem, reference compound]”, in [1], the “maximum inhibition of VEGF165-induced cell proliferation” value is recorded as “no significant effect”. Moreover, the “maximum inhibition of VEGF165-induced migration” value in [2] was “no significant effect”. Besides, the “inhibition of VEGF165-induced HuDMEC tube formation” value in data set [3] (1 μM peptide, 0.5 nM VEGF165, 6 h, n = 4) is on record as “no significant effect”. Besides, the “inhibition of tubule formation in response to VEGF121” value in data set [3] (1 μM peptide, VEGF121, n = 4) is reported as “no significant effect”. Further, the “inhibition of VEGF165-induced VEGFR-2 phosphorylation” value in data set [4] is on record as “no significant effect”. In [5], the “inhibition of VEGF165-induced phosphorylation of PI3K” value is on record as “no significant effect”. In addition, the “concentration showing some toxicity to HuDMEC” value in data set [6] is at least 10 µM.

In the case of GLKLEVNKYQYLLTGR [p323], the “ability to inhibit the binding of VEGF165 to rhVEGFR-2” value in data set [7] is given as “not”.

B1: full length TIMP-3: recombinant human tissue inhibitor of metalloproteinases-3, His-tagged, from High Five insect cells (protein)
chain: CTCSPSHPQDAFCNSDIVIRAKVVGKKLVKEGPFGTLVYTIKQMKMYRGFTKMPHVQYIHTEASESLCGLKLEVNKYQYLLTGRVYDGKMYTGLCNFVERWDQLTLSQRKGLNYRYHLGCNCKIKSCYYLPCFVTSKNECLWTDMLSNFGYPGYQSKHYACIRQKGGYCSWYRGWAPPDKSIINATDP
modifications: left off: His6, C-terminal, state not stated
For the molecule B1, the “ability to inhibit the binding of VEGF165 to rhVEGFR-2” value in data set [7] was “able to inhibit”. In addition, the “inhibition of bFGF-induced tubule formation” value in [3] (HuDMEC, 1.6 nM bFGF, 6 h, n = 3, Fig. 3b) is on record as “some inhibition”. Besides, the “inhibition of VEGF165-induced VEGFR-2 phosphorylation” value in data set [4] was 45%. Also, in data set [8], the “inhibition of FGFR1” value is “no inhibition”. The “inhibition of PDGFR-β” value in data set [9] is reported as “no inhibition”. The “inhibition of VEGFR-1” value in data set [10] is “no inhibition”.

These data come from PMC3898417, “A peptide derived from TIMP-3 inhibits multiple angiogenic growth factor receptors and tumour growth and inflammatory arthritis in mice” (Angiogenesis, 2013).
